Data: patent US20240392315A1, “COMPOSITION FOR CELL ADDITION” (priority 2021, published 2024)
Read-outs that look alike come from different tables or passages of the source.

Tests used:
HEK293 cells [1] = format: cell-based, human
HEK293 cells [2] = tested on: HEK293 cells
AAV2-producing cells = tested on: AAV2-producing cells
Experimental: In order to identify metabolic changes that occurred in AAV2-producing cells when ethanol was added and important factors, intracellular proteins were extracted from cells with and without addition of ethanol during AAV2 production, the extracted proteins were analyzed by liquid chromatography-mass spectrometry (LC-MS) and proteins whose expression increased or decreased during AAV2 production due to the presence or absence of ethanol addition were analyzed.

HEK293 cells [3] = conditions: for Full rate / AAV2 particle number: ethanol 0.56 v/v %, AAV2 produced in cells
Experimental: AAV2 particles (whole particles with and without AAV2 genome) extracted from the culture supernatant and producing cells were measured using a commercially available AAV2 ELISA kit (PROGENE, AAV2 Titration ELISA) and according to the instructions of the kit.
The proportion (Full rate) of AAV2 particles containing the integrated AAV2 genome was calculated from the total number of AAV2 particles quantified by the ELISA method and the quantitative value of particles containing the integrated AAV2 genome obtained from ddPCR.

HEK293 cells [4] = conditions: for culture supernatant genome titer / cell lysate genome titer / cell lysate genome integrity / culture supernatant genome integrity: ethanol 0.28 v/v %; for culture supernatant genome titer: 3 days after transfection
Excerpt: In the same manner as in Example 1, “1.

[5] = 48 and 72 hours after transfection of plasmid DNA for AAV2 production
[6] = 48 hr, protein vs control (no ethanol addition)
[7] = 72 hr, protein vs control (no ethanol addition)
[8] = Downregulated pathway when ethanol was added, time after transfection
[9] = Upregulated pathway when ethanol was added, time after transfection

Experimental for Hela cells: AAV2 was extracted from the culture supernatant and producing cells and an AAV2 solution was prepared. Three days after adding the AAV2 solution to cultured Hela cells, the number of cells expressing the GFP protein derived from the added AAV2 was measured, and the number of cells infected by the AAV2 solution per mL was calculated.

## CC(C)O [Isopropanol, isopropanol]
HEK293 cells [1]; test (4), additive 0.61 v/v %, AAV2 in cells, control 2.40E+07
  genome titer: 2.26E+07 vg/μL
HEK293 cells [1]; test (4), additive 0.61 v/v %, AAV2 in cells, control 53.4
  genome integrity: 58.5%

## OCC(O)CO [Glycerol, glycerol]
HEK293 cells [1]; test (3), additive 0.73 v/v %, AAV2 in cells, 3 days after transfection, control 2.26E+07
  genome titer: 4.50E+07 vg/μL
HEK293 cells [1]; test (3), additive 0.73 v/v %, AAV2 in cells, control 51.9
  genome integrity: 58.9%
HEK293 cells [1]; test (4), additive 0.38 v/v %, AAV2 in cells, control 2.40E+07
  genome titer: 2.78E+07 vg/μL
HEK293 cells [1]; test (4), additive 0.38 v/v %, AAV2 in cells, control 53.4
  genome integrity: 55.2%
HEK293 cells [1]; test (4), additive 1.15 v/v %, AAV2 in cells, control 2.40E+07
  genome titer: 3.66E+07 vg/μL
HEK293 cells [1]; test (4), additive 1.15 v/v %, AAV2 in cells, control 53.4
  genome integrity: 58.5%

## C[S+](C)[O-] [DMSO, dimethyl sulfoxide]
HEK293 cells [2]; test (5), additive 0.57 v/v %, day 3 after transfection, control 4.17E+06
  TFday 3 VCD: 4.58E+06 cells/mL
HEK293 cells [2]; test (5), additive 0.57 v/v %, day 3 after transfection, control 78.5
  TF day 3 Viability: 81.5%
HEK293 cells [2]; when the concentration is low
  cell growth and substance production: improving
HEK293 cells [1]; DMSO, Table 8
  improving integrity of the genome in produced AAV2 and genome titer (productivity): effective
HEK293 cells [1]; test (5), additive 0.57 v/v %, AAV2 produced in cells, control 2.40E+07
  genome titer: 3.35E+07 vg/μL
HEK293 cells [1]; test (5), additive 0.57 v/v %, AAV2 produced in cells, control 53.4
  genome integrity: 59.3%

## CCO [ethanol]
Hela cells; AAV2 vector produced with ethanol addition vs control, Table 4
  infection titer (infecting cells and expressing GFP per volume of lysate): high
Hela cells; ethanol 0.56 v/v %, intracellular AAV2 extract, same amount of genome titer, control 1.36E+08
  infection titer: 1.63E+08 ifu/mL
HEK293 cells [2]; ethanol amounts where intracellular AAV2 genome titer is higher than control
  cell proliferation rate during AAV2 production: equivalent to or higher than in the control condition
HEK293 cells [2]; ethanol amounts where intracellular AAV2 genome titer is higher than control, FIG. 1C
  viability of the producing cells on day 3 after transfection: maintained higher than in the control condition
HEK293 cells [1]; ethanol 0.09 to 2.2 V/V %, particularly at not exceeding 1.1 v/v %, vs no ethanol, FIG. 1A, 1B
  genome titer of AAV2 both in cells and in the culture supernatant: improved
HEK293 cells [1]; ethanol 0.56 v/v %, intracellular AAV2 extract, control 45.6
  genome integrity: 54.7%
HEK293 cells [1]; ethanol 0.56 v/v %, intracellular AAV2 extract, ddPCR primer for ITR region, control 4.40E+07
  genome titer: 6.59E+07 vg/μL
HEK293 cells [1]; ethanol added within the range of about 2v/v %, FIG. 2A
  percentage of integrated genome in AAV2 in the producing cells: clearly higher
HEK293 cells [1]; ethanol addition during AAV2 production, FIG. 2A, 2B
  proportion of the integrated genome in AAV2: improved
HEK293 cells [1]; test (1), ethanol 0.56 v/v %, AAV2 produced in cells, control 2.26E+07
  genome titer: 5.05E+07 vg/μL
HEK293 cells [1]; test (2), ethanol 0.56 v/v %, AAV2 produced in cells, control 3.23E+07
  genome titer: 3.81E+07 vg/μL
AAV2-producing cells; [5]
  pathway change, CLEAR Signaling Pathway: activated
  pathway change, Estrogen Receptor Signaling: activated
  pathway change, Interferon Signaling: suppressed
  pathway change, NAD Signaling: activated
  pathway change, Necroptosis Signaling Pathway: suppressed
  pathway change, Protein Kinase A Signaling: activated
  pathway change, Role of Hypercytokinemia/hyperchemokinemia in the Pathogenesis of influenza: suppressed
  pathway change, Superpathway of Cholesterol Biosynthesis: activated
AAV2-producing cells; [6]
  Fold Change CAPN5: 2.10
  Fold Change DUSP9: −1.30
  Fold Change GLUL: −1.80
  Fold Change GNG2: 1.75
  Fold Change GNPTG: −1.59
  Fold Change H1-4: −1.33
  Fold Change HPS5: 100
  Fold Change IFI35: 100
  Fold Change IFIT1: −1.60
  Fold Change IFIT3: −1.73
  Fold Change IFITM3: 1.19
  Fold Change ISG15: −1.77
  Fold Change MED14: 1.16
  Fold Change MERTK: 1.44
  Fold Change MITF: −1.33
  Fold Change NAGLU: 100
  Fold Change NGFR: 2.60
  Fold Change NPRL3: 100
  Fold Change PKN (paxillin): −1.31
  Fold Change PRKAG2: 100
  Fold Change SMAD3: 100
  Fold Change TIMM10: −8.00
  Fold Change TNIP1: −100
  Fold Change TRPM1: −2.58
AAV2-producing cells; [7]
  Fold Change BAX: 1.11
  Fold Change CAPN5: 1.51
  Fold Change CCL5: −1.79
  Fold Change DHCR24: −1.03
  Fold Change DXO: 100
  Fold Change FADD: 1.54
  Fold Change GLUL: −1.91
  Fold Change GNG2: 1.60
  Fold Change HADHA: 1.23
  Fold Change HADHB: 1.29
  Fold Change HMGCS1: −1.21
  Fold Change HPS5: 100
  Fold Change IFI35: −100
  Fold Change IFIT1: −1.53
  Fold Change IFIT3: −1.51
  Fold Change INS: 1.58
  Fold Change IRE3 (interferon regulatory factor 3): 1.09
  Fold Change ISG15: −1.52
  Fold Change MED6: −100
  Fold Change MED14: 1.07
  Fold Change MITF: −1.28
  Fold Change MSMG1 (methylsterol monooxygenase 1): −1.07
  Fold Change MT-CYB: 3.49
  Fold Change MT-ND4: −1.65
  Fold Change NAGLU: −1.74
  Fold Change NFKB1: 1.07
  Fold Change NGFR: 2.35
  Fold Change NTN1: −1.60
  Fold Change POLRZI (RNA polymerase II subunit I): −1.42
  Fold Change PPP1R140 (protein phosphatase 1 regulatory inhibitor subunit 14C): −1.29
  Fold Change PRKAG2: 100
  Fold Change PTPRK: −1.31
  Fold Change RAF1: −1.29
  Fold Change RXRA: −1.40
  Fold Change SC5D: 100
  Fold Change SLC29A1: −1.28
  Fold Change TIMM10: 1.51
  Fold Change TNIP1: −100
  Fold Change TOMM6: 1.63
  Fold Change TOMM7: −1.40
  Fold Change TP53: −1.18
AAV2-producing cells; [8]
  Regulated timing, Interferon Signaling: 48 hr, 72 hr
  Regulated timing, Necroptosis Signaling Pathway: 48 hr, 72 hr
  Regulated timing, Role of Hypercytokinemia/hyperchemokinemia in the Pathogenesis of influenza: 72 h
AAV2-producing cells; Pathway where change was identified when ethanol was added, time after transfection
  Regulated timing, Activation of IRF by Cytosolic Pattern recognition receptors: 72 h
AAV2-producing cells; [9]
  Regulated timing, CLEAR Signaling Pathway: 48 hr, 72 hr
  Regulated timing, Estrogen Receptor Signaling: 72 h
  Regulated timing, NAD Signaling: 72 h
  Regulated timing, Protein Kinase A Signaling: 48 hr, 72 hr
  Regulated timing, Superpathway of Cholesterol Biosynthesis: 72 h
HEK293 cells [3]; AAV2 produced with addition of ethanol vs control, Table 3
  rate of incorporation of AAV2-derived genome into the produced AAV2 capsid: higher
HEK293 cells [3]; test (1), control 2.30
  Full rate: 3.58%
HEK293 cells [3]; test (1), control 9.86E+11
  AAV2 particle number: 1.41E+12 particles/mL
HEK293 cells [3]; test (2), control 1.04E+12
  AAV2 particle number: 1.13E+12 particles/mL
HEK293 cells [3]; test (2), control 3.12
  Full rate: 3.38%
HEK293 cells [4]; AAV1, control 3.34E+06
  culture supernatant genome titer: 5.09E+06 vg/μL
HEK293 cells [4]; AAV1, control 2.67E+06
  cell lysate genome titer: 4.67E+06 vg/μL
HEK293 cells [4]; AAV1, control 43.3
  cell lysate genome integrity: 54.2%
HEK293 cells [4]; AAV1, control 49.3
  culture supernatant genome integrity: 58.6%
HEK293 cells [4]; AAV6, control 1.20E+05
  culture supernatant genome titer: 1.08E+05 vg/μL
HEK293 cells [4]; AAV6, control 1.60E+07
  cell lysate genome titer: 2.05E+07 vg/μL
HEK293 cells [4]; AAV6, control 23.7
  culture supernatant genome integrity: 28.6%
HEK293 cells [4]; AAV6, control 51.8
  cell lysate genome integrity: 55.1%
HEK293 cells [4]; when ethanol was added
  amount of AAV1 produced (genome titer) and genome integrity, in culture supernatant and within cells: improved
  amount of AAV6 produced within cells (genome titer): improved
  genome integrity of AAV6 in culture supernatant and within cells: improved

## CO [Methanol, methanol]
HEK293 cells [1]; test (4), additive 0.33 v/v %, AAV2 in cells, control 2.40E+07
  genome titer: 2.94E+07 vg/μL
HEK293 cells [1]; test (4), additive 0.33 v/v %, AAV2 in cells, control 53.4
  genome integrity: 58.4%
